In ChEMBL document CHEMBL4420078, “Sos1 inhibitors for cancer treatment” (2016) one finds inhibition data, which are given here for three molecules.

Active and inactive are the calls of the source. The rule behind the calls is not given here.

The target in assay [1] is T1, Son of sevenless homolog 1 (Mus musculus) (UniProt Q62245).
T1 sequence (whole entry): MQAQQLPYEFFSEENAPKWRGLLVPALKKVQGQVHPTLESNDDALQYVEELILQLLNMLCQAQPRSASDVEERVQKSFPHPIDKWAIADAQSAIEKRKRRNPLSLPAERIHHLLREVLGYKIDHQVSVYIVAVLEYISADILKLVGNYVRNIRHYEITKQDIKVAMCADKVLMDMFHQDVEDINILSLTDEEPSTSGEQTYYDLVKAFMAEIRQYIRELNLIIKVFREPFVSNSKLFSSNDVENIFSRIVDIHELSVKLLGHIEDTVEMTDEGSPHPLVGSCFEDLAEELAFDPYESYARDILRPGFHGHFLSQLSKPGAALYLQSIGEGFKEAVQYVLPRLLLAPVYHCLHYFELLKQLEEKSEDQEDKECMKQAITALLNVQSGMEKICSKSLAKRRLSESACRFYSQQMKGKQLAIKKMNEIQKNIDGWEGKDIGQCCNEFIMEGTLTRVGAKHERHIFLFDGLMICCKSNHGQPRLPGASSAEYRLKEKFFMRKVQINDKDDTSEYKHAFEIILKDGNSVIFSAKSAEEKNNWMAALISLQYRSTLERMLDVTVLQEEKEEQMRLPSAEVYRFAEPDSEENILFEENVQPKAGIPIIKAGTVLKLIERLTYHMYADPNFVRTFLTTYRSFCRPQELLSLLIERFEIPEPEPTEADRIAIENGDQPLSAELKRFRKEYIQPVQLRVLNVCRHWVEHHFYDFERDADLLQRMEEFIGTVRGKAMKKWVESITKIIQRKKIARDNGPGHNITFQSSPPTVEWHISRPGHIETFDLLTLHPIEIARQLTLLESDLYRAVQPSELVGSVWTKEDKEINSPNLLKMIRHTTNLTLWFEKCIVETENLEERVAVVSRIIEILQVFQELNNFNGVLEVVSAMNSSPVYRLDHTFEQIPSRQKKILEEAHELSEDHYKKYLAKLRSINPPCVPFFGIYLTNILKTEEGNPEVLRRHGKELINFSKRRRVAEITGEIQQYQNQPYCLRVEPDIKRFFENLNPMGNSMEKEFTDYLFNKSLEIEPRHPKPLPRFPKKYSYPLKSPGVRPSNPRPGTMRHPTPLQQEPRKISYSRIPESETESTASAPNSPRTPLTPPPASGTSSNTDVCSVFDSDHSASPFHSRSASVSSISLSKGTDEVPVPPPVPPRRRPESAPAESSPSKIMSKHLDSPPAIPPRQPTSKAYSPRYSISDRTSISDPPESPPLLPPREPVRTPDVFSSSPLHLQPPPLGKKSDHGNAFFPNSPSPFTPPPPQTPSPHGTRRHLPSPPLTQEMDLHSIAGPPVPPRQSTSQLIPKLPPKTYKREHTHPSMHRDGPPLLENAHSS
In words: Inhibition of SOS1 in overnight serum-starved mouse NIH/3T3 cells assessed as effect on Ras-GTP levels at 20 to 40 uM pre-incubated for 16 hrs before EGF stimulation for 5 mins by GST-Raf1 effector domain pulldown assay.

Assay [2] has as its target T2, Son of sevenless homolog 1 (Homo sapiens) (UniProt Q07889).
T2 sequence (whole entry): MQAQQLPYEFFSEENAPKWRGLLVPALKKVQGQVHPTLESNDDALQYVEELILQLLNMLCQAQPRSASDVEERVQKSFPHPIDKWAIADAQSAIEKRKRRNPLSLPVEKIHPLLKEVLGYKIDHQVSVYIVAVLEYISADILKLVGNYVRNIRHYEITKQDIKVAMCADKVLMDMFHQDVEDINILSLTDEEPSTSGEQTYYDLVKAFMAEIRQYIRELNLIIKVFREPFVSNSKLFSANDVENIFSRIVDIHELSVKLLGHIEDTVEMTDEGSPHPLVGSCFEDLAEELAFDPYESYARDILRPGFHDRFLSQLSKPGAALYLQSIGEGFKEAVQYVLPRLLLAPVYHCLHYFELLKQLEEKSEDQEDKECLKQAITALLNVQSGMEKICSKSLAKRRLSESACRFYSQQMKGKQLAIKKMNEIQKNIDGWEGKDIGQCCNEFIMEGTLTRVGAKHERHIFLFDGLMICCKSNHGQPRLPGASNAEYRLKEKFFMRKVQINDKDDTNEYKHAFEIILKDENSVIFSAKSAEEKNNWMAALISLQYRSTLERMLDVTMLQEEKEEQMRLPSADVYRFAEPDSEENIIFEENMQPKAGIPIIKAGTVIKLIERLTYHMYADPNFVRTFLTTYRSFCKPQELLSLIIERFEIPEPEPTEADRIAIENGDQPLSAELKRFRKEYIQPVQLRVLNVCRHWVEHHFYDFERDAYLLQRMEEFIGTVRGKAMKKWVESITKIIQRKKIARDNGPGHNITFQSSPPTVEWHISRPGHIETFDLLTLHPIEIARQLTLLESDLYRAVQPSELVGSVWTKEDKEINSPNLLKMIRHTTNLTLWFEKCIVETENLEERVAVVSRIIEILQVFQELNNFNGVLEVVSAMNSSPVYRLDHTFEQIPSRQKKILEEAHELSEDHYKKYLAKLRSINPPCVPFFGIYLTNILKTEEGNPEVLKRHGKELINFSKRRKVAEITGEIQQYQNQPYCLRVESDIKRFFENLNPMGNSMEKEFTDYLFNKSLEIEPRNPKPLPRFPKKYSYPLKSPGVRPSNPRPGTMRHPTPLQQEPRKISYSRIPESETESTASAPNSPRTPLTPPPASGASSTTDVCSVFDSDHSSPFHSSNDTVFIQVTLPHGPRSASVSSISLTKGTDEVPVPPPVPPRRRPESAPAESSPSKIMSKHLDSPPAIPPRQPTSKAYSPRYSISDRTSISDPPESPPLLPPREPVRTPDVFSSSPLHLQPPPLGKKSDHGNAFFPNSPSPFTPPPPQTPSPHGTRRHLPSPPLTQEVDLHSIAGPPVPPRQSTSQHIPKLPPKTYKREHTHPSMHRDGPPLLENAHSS
In words: Inhibition of N-terminal 6x-His-tagged recombinant human SOS1 catalytic domain (residues 564 to 1049 residues) expressed in Escherichia coli BL21 (DE3) assessed as reduction in 50 nM SOS1-mediated GDP/GTP nucleotide exchange upon 2 uM N-terminal-GST-tagged H-Ras (1 to 166 residues) at 20 uM by BODIPY-FL-GDP dissociation assay.

The target in assay [3] is T1, Son of sevenless homolog 1 (Mus musculus). In words: Inhibition of SOS1 in overnight serum-starved mouse NIH/3T3 cells assessed as effect on Ras-GTP levels at 20 to 40 uM pre-incubated for 2 hrs before EGF stimulation for 5 mins by GST-Raf1 effector domain pulldown assay.
In assay [4] the target is T2, Son of sevenless homolog 1 (Homo sapiens). Briefly: Inhibition of SOS1 in overnight serum-starved human MIAPaCa2 cells assessed as effect on Ras signaling by measuring Pan RAS expression in presence of GTP and KRAS at 20 to 60 uM by Western blotting analysis. A general note: In western blotting, separated proteins are transferred to a membrane and probed.
The target is the same in assay [5]. Briefly: Inhibition of SOS1 in overnight serum-starved human MIAPaCa2 cells assessed as reduction in AKT phosphorylation at 20 to 40 uM by Western blotting analysis.

In the case of `O=C(O)c1ccccc1-c1c2ccc3cc(O)ccc3c2oc2c1ccc1cc(=O)ccc12`, the inhibition entry in assay [1] was “Active”.

On to `O=C(O)c1cc2c3c(c1)C1C=CCC1C(c1ccccc1Cl)N3CC1CC=CC21` (stereo not given), for which the inhibition entry in assay [2] and in assay [3] was “Active” in each case.

Take `O=[N+]([O-])c1ccccc1/C=C/C=C1c2ccccc2-c2ccccc21`: the inhibition entry in assay [4] was “Active”. For the same molecule, the inhibition result in assay [5] was “inactive”.
